Data taken from patent EP1175467B1, “STABILIZED ADHESIVE COMPOSITIONS CONTAINING HIGHLY SOLUBLE, RED-SHIFTED, PHOTOSTABLE BENZOTRIAZOLE UV ABSORBERS AND LAMINATED ARTICLES DERIVED THEREFROM” (Ciba Specialty Chemicals Holding Inc., priority 1999, dated 2000).

Assay: Benzotriazole solubility in adhesive GELVA 263 (observed crystallization after solvent evaporation)
Conditions: in GELVA 263 polyacrylate adhesive; approximate maximum concentration, weight of total benzotriazole added to GELVA 263 as is
Procedure: To measure this solubility a number of structurally different benzotriazoles are added to a typical adhesive GELVA® 263 (Solutia) which is a 44.5% solution of a polyacrylate in a mixture of ethyl acetate and hexane. The polyacrylate is a copolymer of methyl methacrylate, 2-ethylhexyl methacrylate and glycidyl methacrylate.
The test benzotriazole is dissolved in 5 mL of ethyl acetate, toluene or a mixture of ethyl acetate and toluene. To the solution is added 5 g of GELVA® 263 and 2-3 mL of the resulting solution is placed into individual watch glasses. Solubility is then evaluated based upon observed crystallization once the solvent has evaporated. Observations start after several hours and then continue over a period of several weeks.
Solubilities are reported in weight of total benzotriazole added to GELVA® 263 as is.
Following the procedure of Example 3, the solubility in GELVA® 263 (Solutia) of various mixtures of benzotriazoles is determined. […]
The test compound is dissolved in 5 mL of ethyl acetate, toluene or a mixture of ethyl acetate and toluene. […] Solubility is then evaluated based upon observed crystallization once the solvent has evaporated. […]

Row | Compound | Solubility without Crystallization (%)
1 | COC(=O)C[S+]([O-])c1ccc2nn(-c3cc(C(C)(C)C)cc(C(C)(C)C)c3O)nc2c1 (centres unmarked) [J, 5-methoxycarbonylmethylsulfinyl-2-(2-hydroxy-3,5-di-tert-butylphenyl)-2H-benzotriazole] | 8.0
2 | COC(=O)CCc1cc(-n2nc3ccc(S(=O)(=O)c4ccccc4)cc3n2)c(O)c(C(C)(C)C)c1 [K, methyl 3-(5-phenylsulfonyl-2H-benzotriazol-2-yl)-5-tert-butyl-4-hydroxyhydrocinnamate] | 11.3
